Test results: article PMC10899196, “Protective effect of microbisporicin (NAI-107) against vancomycin resistant Enterococcus faecium infection in a Galleria mellonella model” (Scientific Reports, 2024)
Values after ≈ are worked out from the molar mass of the structure shown. Where two headings read alike, the source gives them in different places. Ends that are not written are not given here.

Legend:
[1] = test system: van-B type E. faecium (ID 553); assay: microbe, parasite or virus in culture; type: cell-based, Enterococcus faecium
Description: Sixty-six bacteriocins from Syngulon PARAGEN collection and NAI-107 from Naicons, SRL were screened using the resazurin microtiter assay (REMA)[30],[31]. The MIC for the antimicrobials listed in Table 1 were determined according to the clinical and laboratory standard institute (CLSI) guidelines and the European Committee on Antimicrobial Susceptibility Testing (EUCAST) broth microdilution reference method for MIC determination in E. faecium[32],[33].

[2] = test system: vanA E. faecium 569; settings: administered intravenously to neutropenic mice; cited from earlier work
Text: (§1) Bacteriocins have gained considerable attention as potential alternatives to traditional antibiotics due to their narrow-spectrum activity and a lower likelihood of inducing resistance[11],[12]. Most leaderless bacteriocins such as Lacticin Q (53 aa), Lacticin Z (53 aa), and Garvicin KS have proven to have inhibitory effects against a range of genera such as Listeria, Staphylococcus and ...

[3] = test system: vanA E. faecalis A533; settings: administered intravenously to neutropenic mice; cited from earlier work
Text: as §1

[4] = test system: vanB-type E. faecium (ID 553); assay: Galleria mellonella E. faecium infection model, in vivo efficacy
Description: G. mellonella larvae were treated with a range of doses of vanB-type E. faecium (ID 553) (1 × 10^6–1 × 10^9 CFU/mL) and observed for death alongside phosphate buffer saline (PBS) controls.
Injection of G. mellonella was carried out as described in Dijokaite et al.[21]. The last larval stage of G. mellonella (Terramania, Arnhem, NL) were used for the experiments. Only non-discoloured, healthy larvae were selected. The larvae were injected in the last left proleg using 0.3 mL U-100 insulin syringes (BD Micro-Fine).
Each test group consisted of two groups of 10 larvae per concentration of each bacteriocin or linezolid (10 µg/mL). 30 µl of PBS containing 2.7 × 10^7 CFU E. faecium was used to infect the G. mellonella larva. The larvae were treated with various concentrations of bacteriocins. One positive and two negative control groups were used. The positive control group received only the E. faecium inoculum in PBS. Out of the two negative control groups, one group underwent no manipulation, while the other group was injected with PBS only. Each antimicrobial agent was tested in a single experiment using larvae from the same batch and tested at the same time under identical conditions. Each group were incubated in sterile Petri dishes at 37 °C with a 5% (v/v) CO2 atmosphere for the length of the experiments.
Data were analyzed using GraphPad Prism v9. Survival plots were created using Kaplan–Meier survival curves. Statistical analysis was carried out using the Mantel-Cox test to compare survival curves between the PBS controls and each treatment arm. A P value of < 0.05 was considered statistically significant.

[5] = test system: methicillin-resistant Staphylococcus aureus; settings: cited from earlier work
Text: (§2) There are a number of study limitations. […] This hypothesis was motivated by the growing problem of VRE infections. We acknowledge the limitations of this hypothesis. […] This would be of clinica ...

[6] = test system: G. mellonella; settings: G. mellonella model; cited from earlier work
Text: as §2

[7] = cited from earlier work
Text: This characteristic implies that NAI-107 would require parenteral administration in multiple doses per day for therapeutic use.

[8] = Enterococcus faecium, micro broth dilution method, van-B type E. faecium (ID 553), read-out: MIC
[9] = micro broth dilution method, van-B type E. faecium (ID 553)
[10] = micro broth dilution method, van-B type E. faecium (ID 553), molar value from deduced molecular weight
[11] = mouse, single subcutaneous dosing of 5, 20 and 80 mg/kg

For `CC1(C)S[C@@H]2[C@H](NC(=O)[C@H](N)c3ccccc3)C(=O)N2[C@H]1C(=O)O` [Ampicillin, reference compound], which MIC [1, 8] is on record?
The MIC was at least 32 µg/mL.

For `CC[C@H]1OC(=O)[C@H](C)[C@@H](O[C@H]2C[C@@](C)(OC)[C@@H](O)[C@H](C)O2)[C@H](C)[C@@H](O[C@@H]2O[C@H](C)C[C@H](N(C)C)[C@H]2O)[C@](C)(O)C[C@@H](C)C(=O)[C@H](C)[C@@H](O)[C@]1(C)O` [Erythromycin, reference compound], which MIC [1, 8] is on record?
The MIC was at least 8 µg/mL.

Which MIC [1, 8] does the source give for `CNC(C)C1CCC(N)C(OC2C(N)CC(N)C(OC3OCC(C)(O)C(NC)C3O)C2O)O1` (stereo not drawn) [Gentamicin, reference compound] here?
Its MIC is at least 32 µg/mL.

With `CC(=O)NC[C@H]1CN(c2ccc(N3CCOCC3)c(F)c2)C(=O)O1` [Linezolid, reference compound] as the molecule, how does the MIC [1, 8] read?
The MIC was 2 µg/mL (≈ 5.93 µM).

Which MIC [1, 8] does the source give for `CN(C)[C@@H]1C(O)=C(C(N)=O)C(=O)[C@@]2(O)C(O)=C3C(=O)c4c(O)cccc4[C@@](C)(O)[C@H]3C[C@@H]12` [Tetracycline, reference compound] here?
Its MIC is 0.25 µg/mL (≈ 0.563 µM).

For `CN[C@H](CC(C)C)C(=O)N[C@H]1C(=O)N[C@@H](CC(N)=O)C(=O)N[C@H]2C(=O)N[C@H]3C(=O)N[C@H](C(=O)N[C@H](C(=O)O)c4cc(O)cc(O)c4-c4cc3ccc4O)[C@H](O)c3ccc(c(Cl)c3)Oc3cc2cc(c3O[C@@H]2O[C@H](CO)[C@@H](O)[C@H](O)[C@H]2O[C@H]2C[C@](C)(N)[C@H](O)[C@H](C)O2)Oc2ccc(cc2Cl)[C@H]1O` [Vancomycin], which MIC ([1]; Enterococcus faecium) is on record?
The MIC was 64 µg/mL (≈ 44.2 µM).

For “MSWLNFLKYIAKYGKKAVSAAWKYKGKVLEWLNVGPTLEWVWQKLKKIAGL [Aureocin A53]”, which MIC [1, 9] is on record?
The MIC was 1.56 µg/mL.

And the MIC [1, 10]?
Its MIC is 0.2609 µM/L.

For Microbisporicin, which MIC [1, 9] is on record?
Its MIC is 4 µg/mL.

And the MIC [1, 10]?
The MIC was 0.00178 µM/L.

And the in vivo efficacy [2]?
Its in vivo efficacy is “effective”.

And the in vivo efficacy [3]?
Its in vivo efficacy is “effective”.

And the “mortality compared with the linezolid (10 µg/mL) treated group” value ([4]; 16 µg/mL group, 120 h)?
Its value is “significantly lower”.

And the “dose groups with the lowest mortality” value ([4]; doses tested 2, 4, 8 and 16 µg/mL, 120 h)?
Its value is 8 µg/mL and 16 µg/mL.

And the “in vivo efficacy (survival of infected larvae)” value ([4]; larvae infected with 2.7 × 10^7 CFU E. faecium in 30 µl PBS, 20 larvae per group, 2-16 µg/mL, 120 h at 37 °C)?
Its value is “effective in vivo at all doses tested”.

What about the “efficacy against methicillin-resistant Staphylococcus aureus in rat model” value [5] of the same molecule?
The value was “efficacious”.

What about the “toxicity in rat model” value [5] of the same molecule?
The value was “non-toxic”.

And the “concentration up to which no toxicity was exhibited” value [6]?
Its value is at least 64000 ng/mL.

And the bioavailability ([7]; after intramuscular, intravenous and subcutaneous administration)?
Its bioavailability is “good bioavailability”.

And the AUC [7, 11]?
The AUC was 27000 to 276000 ng·h/mL.

And the Cmax [7, 11]?
The Cmax was 4000 to 22000 ng/mL.

And the elimination half-lives [7, 11]?
Its elimination half-lives is 4.2 to 8.2 h.

And the oral absorption ([7]; oral)?
The oral absorption was “not absorbed orally”.

For Teicoplanin [reference compound], which MIC [1, 9] is on record?
The MIC was 0.5 µg/mL.
